pIC50: −log10 of the molar value.
Assays:
U937 leukemia cell line = experiment: toxicity against U937 leukemia cell line; format: cell-based, human
Source text: Untreated P388 WT (wild type) cells show dark wells where cells are viable.

human topI = target: T1, human topI (Homo sapiens, UniProt P11387); format: biochemical; conditions: band of nicked DNA increases with concentration; FIG. 4
T1 sequence (P11387 1-765): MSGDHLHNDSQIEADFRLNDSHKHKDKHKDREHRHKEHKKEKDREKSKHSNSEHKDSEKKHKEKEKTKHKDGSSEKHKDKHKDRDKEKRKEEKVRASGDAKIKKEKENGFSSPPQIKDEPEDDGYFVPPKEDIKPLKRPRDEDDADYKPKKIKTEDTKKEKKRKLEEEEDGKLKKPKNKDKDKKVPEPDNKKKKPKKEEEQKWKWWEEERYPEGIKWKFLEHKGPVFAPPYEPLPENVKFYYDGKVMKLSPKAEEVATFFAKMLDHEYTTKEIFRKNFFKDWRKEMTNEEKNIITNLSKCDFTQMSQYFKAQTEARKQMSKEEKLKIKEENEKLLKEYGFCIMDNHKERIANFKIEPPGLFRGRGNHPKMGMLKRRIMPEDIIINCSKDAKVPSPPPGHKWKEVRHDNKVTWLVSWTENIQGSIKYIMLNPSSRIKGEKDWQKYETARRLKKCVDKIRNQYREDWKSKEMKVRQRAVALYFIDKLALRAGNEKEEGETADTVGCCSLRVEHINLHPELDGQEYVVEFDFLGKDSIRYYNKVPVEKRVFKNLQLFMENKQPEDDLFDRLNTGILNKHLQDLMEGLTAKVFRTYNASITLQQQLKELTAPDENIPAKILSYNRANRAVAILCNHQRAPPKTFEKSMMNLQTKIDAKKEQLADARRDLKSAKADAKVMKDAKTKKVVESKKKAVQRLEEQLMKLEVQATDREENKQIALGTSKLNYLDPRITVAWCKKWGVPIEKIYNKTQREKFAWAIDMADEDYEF
Source text: DNA cleavage produced by human topI in pSK DNA;
The nicked DNA migrates to position 2 on these gels.

[1] = target: T2, camptothecin-topo I-DNA complex (Homo sapiens, UniProt P11387); format: biochemical; conditions: after addition of NaCl; FIG. 5
T2 sequence (P11387 1-765): T1 sequence (P11387 1-765)
Source text: In this assay, nicked DNA is first formed by the action of the camptothecins. Addition of NaCl perturbs the equilibrium and destabilizes the camptothecin-topo I-DNA complex. The persistence of the nicked DNA under these conditions indicates increased stability of the cleavable complex.

SMILES	pIC50 (U937 leukemia cell line)	induction of nicked DNA (human topI)	time after which nicked DNA is difficult to detect [1] [min]	persistence of nicked DNA / stabilization of the cleavable complex [1]
CC[C@@]1(O)C(=O)OCc2c1cc1n(c2=O)Cc2c-1nc1cc3c(cc1c2CCl)OCO3 [CMMDC, 7-chloromethyl-10,11-methylenedioxy-20(S)-camptothecin]	8.15			
CC[C@@]1(O)C(=O)OCc2c1cc1n(c2=O)Cc2cc3ccccc3nc2-1 [CPT, camptothecin]		induce nicked DNA	3	
CC[C@@]1(O)C(=O)OCc2c1cc1n(c2=O)Cc2cc3cc4c(cc3nc2-1)OCO4 [MDC, 10,11-methylenedioxy-20(S)-camptothecin]		induce nicked DNA		show nicked DNA for longer periods of time

— patent publication US6825206B1 (priority 2000, dated 2004)
